Data as given in PubChem BioAssay AID1845213 (Molecular Pharmacology Branch, DTP, NCI, 2023).

Tested on: NCI-H841 complex tumor spheroid viability
Assay: Anticancer human tumor NCI-H841 cell line growth inhibition;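 further: spheroids exposed to compounds for 7 days before readout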;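 on viability, T/C: 100% = DMSO vehicle control wells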
Details: for IC50: curve of first compound; for viability, T/C: stronger effect = lower value
Method in brief: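 Complex tumor spheroids combined malignant cells with endothelial cells and mesenchymal stem cells. DNA-damaging drugs and DNA repair inhibitors were tested alone and in combination, at half-log dilutions down from clinical Cmax (top 10 microM if Cmax unknown), 0.25% DMSO final.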

[1] = second compound 30 pM, first compound 0.0316 µM
[2] = second compound 30 pM, first compound 0.1 µM
[3] = second compound 30 pM, first compound 0.316 µM
[4] = second compound 30 pM, first compound 1 µM
[5] = second compound 30 pM, first compound 3.16 µM
[6] = second compound 30 pM, first compound 10 µM
[7] = second compound 94.9 pM, first compound 0.0316 µM
[8] = second compound 94.9 pM, first compound 0.1 µM
[9] = second compound 94.9 pM, first compound 0.316 µM
[10] = second compound 94.9 pM, first compound 1 µM
[11] = second compound 94.9 pM, first compound 3.16 µM
[12] = second compound 94.9 pM, first compound 10 µM
[13] = second compound 0.0003 µM, first compound 0.0316 µM
[14] = second compound 0.0003 µM, first compound 0.1 µM
[15] = second compound 0.0003 µM, first compound 0.316 µM
[16] = second compound 0.0003 µM, first compound 1 µM
[17] = second compound 0.0003 µM, first compound 3.16 µM
[18] = second compound 0.0003 µM, first compound 10 µM
[19] = second compound 0.000949 µM, first compound 0.0316 µM
[20] = second compound 0.000949 µM, first compound 0.1 µM
[21] = second compound 0.000949 µM, first compound 0.316 µM
[22] = second compound 0.000949 µM, first compound 1 µM
[23] = second compound 0.000949 µM, first compound 3.16 µM
[24] = second compound 0.000949 µM, first compound 10 µM
[25] = second compound 0.003 µM, first compound 0.0316 µM
[26] = second compound 0.003 µM, first compound 0.1 µM
[27] = second compound 0.003 µM, first compound 0.316 µM
[28] = second compound 0.003 µM, first compound 1 µM
[29] = second compound 0.003 µM, first compound 3.16 µM
[30] = second compound 0.003 µM, first compound 10 µM

Row | Compound | IC50 (second compound 30 pM) | IC50 (second compound 94.9 pM) | IC50 (second compound 0.0003 µM) | IC50 (second compound 0.000949 µM) | IC50 (second compound 0.003 µM) | viability, T/C [1] | viability, T/C [2] | viability, T/C [3] | viability, T/C [4] | viability, T/C [5] | viability, T/C [6] | viability, T/C [7] | viability, T/C [8] | viability, T/C [9] | viability, T/C [10] | viability, T/C [11] | viability, T/C [12] | viability, T/C [13] | viability, T/C [14] | viability, T/C [15] | further results
1 | CC1COCCN1c1cc(-c2ccnn2C)c2ccnc(-c3ccn[nH]3)c2n1 (stereo not given) + COc1cc2c(cc1O)CCNC21CSC2c3c(OC(C)=O)c(C)c4c(c3C(COC1=O)N1C(O)C3Cc5cc(C)c(OC)c(O)c5C(C21)N3C)OCO4 | < 31.6 nM | < 31.6 nM | < 31.6 nM | < 31.6 nM | < 31.6 nM | 26.5% | 3.12% | 1.47% | 0.86% | 1.08% | 1.34% | 4.85% | 0.92% | 0.73% | 0.72% | 0.85% | 1.34% | 0.85% | 0.44% | 0.46% | viability, T/C [16]: 0.56%; viability, T/C [17]: 0.59%; viability, T/C [18]: 0.82%; viability, T/C [19]: 0.34%; viability, T/C [20]: 0.28%; viability, T/C [21]: 0.24%; viability, T/C [22]: 0.15%; viability, T/C [23]: 0.06%; viability, T/C [24]: 0.21%; viability, T/C [25]: 0.12%; viability, T/C [26]: 0.12%; viability, T/C [27]: 0.11%; viability, T/C [28]: 0.1%; viability, T/C [29]: 0.11%; viability, T/C [30]: 0.17%
2 | COc1cc(C)[nH]c(=O)c1CN1CCc2c(Cl)cc(C(OC)C3COC3)c(Cl)c2C1=O (stereo not given) + COc1cc2c(cc1O)CCNC21CSC2c3c(OC(C)=O)c(C)c4c(c3C(COC1=O)N1C(O)C3Cc5cc(C)c(OC)c(O)c5C(C21)N3C)OCO4 | 9900 nM | 2520 nM | < 31.6 nM | < 31.6 nM | < 31.6 nM | 85.9% | 76.3% | 71.5% | 67.3% | 58.8% | 48.7% | 84.6% | 67.9% | 70.9% | 56.1% | 48.8% | 39.1% | 32.9% | 27.3% | 14.5% | viability, T/C [16]: 13.7%; viability, T/C [17]: 10.3%; viability, T/C [18]: 5.83%; viability, T/C [19]: 3.08%; viability, T/C [20]: 2.58%; viability, T/C [21]: 2.24%; viability, T/C [22]: 1.23%; viability, T/C [23]: 1.24%; viability, T/C [24]: 0.9%; viability, T/C [25]: 0.09%; viability, T/C [26]: 0.09%; viability, T/C [27]: 0.07%; viability, T/C [28]: 0.1%; viability, T/C [29]: 0.09%; viability, T/C [30]: 0.17%
